{"source": "patent US10292949B2", "about": "“Pharmaceutical composition comprising rimeporide for treating diseases associated with insulin resistance and β-cell dysfunction” (Merck Patent GmbH, priority 2008, dated 2019)", "type_in_all_cases": "in vivo, rat", "key": {"[1]": {"test": "Pharmacological Study Report I: body weight of ZF (fa/fa) rats during 4 weeks of treatment", "settings": "age 8-12 weeks, Compound A 150 mg/kg gavage twice daily, Compound B 40 mg/kg/day in chow", "description": "(§1) Obese, insulin resistant ZF (fa/fa) rats, which are treated from the age of 8-12 weeks, were used as IR model. Rats were housed with a 12-h light/dark cycle and free access to food and water unless otherwise noted. Studies were approved by the Institutional Animal Care and Use Committee. There were a total of 18 animals in the study (8 week-old males, provided by Charles River). Animals were randomized into 3 groups (vehicle group, Compound A group, Compound B group, n=6 per group) based on random glucose level at the beginning of the study: • Group 1: ZF rats (fa/fa) (n=6), compound A (150 mg/kg via gavage) • Group 2: ZF rats (fa/fa) (n=6), compound B (40 mg/kg/day as admixture to the chow) • Group 3: ZF rats (fa/fa) (n=6), vehicle treatment (control chow, vehicle gavage)\n(§2) Group 1 and 3 animals were treated with compound A or vehicle (water) for 4 weeks (from age 8-12 weeks) via oral gavage, twice daily. Chow containing compound B was fed to Group 2 ad lib. Group 1 and Group 3 were fed with chow without compound B ad lib."}, "[2]": {"system": "Obese, insulin resistant ZF (fa/fa) rats", "test": "Pharmacological Study Report I: deuterated glucose disposal test (2H-GDT)", "settings": "4 weeks, Compound B 40 mg/kg/day in chow", "description": "as §1, §2\nRats underwent a 4 hour fast. […] At t=0, the blood glucose concentrations were determined with a glucometer, and a blood sample was obtained for determination of base line insulin and H2O^18 dilution. […]\nOne hundred micro liter aliquots of plasma samples inside the cape of an inverted vial were placed in a heating blocked filled with glass beads at 70° C. overnight and the water distillate inside the vial was collected. The deuterium and oxygen-18 isotope ratios of the blood of plasma samples were determined using a Thermo Finnigan High Temperature Conversion/Elemental Analyzer coupled with a Thermo Finnigan MAT 253 IRMS via a Conflo-III Interface. […] The deuterium isotope abundance is first calculated in δ 2H values relative to the international VSMOW standard, and then transformed to APE by using a calibration curve of standards with known enrichments. The ^2H2O enrichment was calculated for rats at 30 min after the glucose load. ^2H2O enrichment was converted to mmoles by multiplying enrichment by the TBW pool size and dividing by 20 (MW ^2H2O). […]"}, "[3]": {"test": "Pharmacological Study Report II: body weight and food intake", "settings": "for Average food consumption, Week 1 / Average food consumption, Week 2 / Average food consumption, Week 3 / Average food consumption, Week 4: fa/fa rats, average +/- SD", "description": "(§3) Thirty-six obese Zucker fa/fa and six lean Zucker fa/? male rats obtained from Charles River, were housed under normal vivarium conditions on a 12 hour light/dark cycle. The rats were kept two to a cage with food and water available ad lib, except during the weekly, 4 hour fasts. Water continued to be available during these fasts.\n(§4) Compound A corresponds to Cariporide. Compound B corresponds to 2-Methyl-4,5-di-(methylsulfonyl)-benzoyl-guanidine hydrochloride hydrate. Compounds A and B were supplied in powder form by Merck Serono. Drugs were incorporated into a pelleted diet (LabDiet, 5001) by Research Diets, Inc (New Brunswick, N.J.) at concentrations of 0.44 g/kg or 0.88 g/kg of diet to yield approximate doses of 40 or 80 mg/kg. The concentration was calculated based on the assumption that a 300 g rat would eat about 30 g/d of chow. The same chow, but without drug, was fed to rats of both the lean and fa/fa control group animals.\n(§5) One week prior to the start of the study, all rats were weighed. After a 4 hour fast, a blood sample was obtained for the determination of blood glucose, insulin, and glycosylated hemoglobin levels (HbA1c). Animals were then sorted on the basis of these parameters into the groups listed below. Rats were eight weeks of age at the onset of treatment.\n(§6) • 1. ZF rats (fa/fa) (n=6) chow without drug • 2. ZF rats (fa/fa) (n=6) compound A (40 mg/kg/day) • 3. ZF rats (fa/fa) (n=6) compound A (80 mg/kg/day) • 4. ZF rats (fa/fa) (n=6) compound B (40 mg/kg/day) • 5. ZF rats (fa/fa) (n=6) compound B (80 mg/kg/day) • 6. lean Zucker rats (fa/?) (n=6) chow without drug Dosing Regime\n(§7) Treatment appropriate chow was continuously available for 4 weeks except during scheduled 4 h fasts conducted once per week.\nindividual body weights were determined once per week. Average food intake per cage was also determined once per week and the individual rat consumption was calculated by dividing the cage average by 2 (rats housed 2/cage)."}, "[4]": {"system": "obese Zucker fa/fa rats", "test": "Pharmacological Study Report II: random and fasting (4 h) blood glucose and plasma insulin levels", "settings": "Mean ± SD; for Change in Insulin (fasting): change over the 4 week treatment period; for Week 4 Insulin (fasting): week 4 of treatment", "description": "as §3, §4, §5, §6, §7\nBoth random and fasting (4 h) blood glucose levels were determined using a hand-held glucometer (OneTouch Ultra, Lifescan, Inc. Milapitas, Calif.) on blood obtained from tail capillary samples. Plasma insulin levels were determined by a rat specific ELISA (Ultra Sensitive Rat Insulin ELISA Kit, Crystal Chem, Inc., Chicago, Ill.). The 4 h fast period started at 9 a.m. and ended after a blood draw at 1 p.m."}, "[5]": {"system": "obese Zucker fa/fa rats", "test": "Pharmacological Study Report II: HbA1c levels", "settings": "Mean ± SD; for Base line HbA1c: baseline; for Change in HbA1c: change over the 4 week treatment period; for Week 4 HbA1c: week 4 of treatment", "description": "as §3, §4, §5, §6, §7\nHbA1c level were determined using a DCA 2000 analyzer (Bayer Healthcare LLC, Elkhart Ind.) prior to beginning the study and again at the end of the 4th week treatment period."}}, "note": "Counter-ions that a name gives are not always drawn."}
{"smiles": "[H]/N=C(\\N)NC(=O)c1cc(S(C)(=O)=O)c(S(C)(=O)=O)cc1C", "note": "[Compound B, 2-Methyl-4,5-di-(methylsulfonyl)-benzoyl-guanidine hydrochloride hydrate]", "values": [{"measurement": "Body weight, difference among vehicle- and compound-treated groups", "setting": "[1]", "result": "no significant differences"}, {"measurement": "Insulin sensitivity (% 2H2O recovery per insulin AUC), increase compared to pre-treatment values", "setting": "[2]", "result": "~4", "unit": "fold"}, {"measurement": "Average weekly food intake vs chow fed fa/fa controls", "setting": "[3]; Zucker fa/fa rats, 4 weeks, 40 or 80 mg/kg in chow", "result": "did not differ significantly"}, {"measurement": "Average food consumption, Week 1", "setting": "[3]; 40 mg/kg in chow", "result": "32.1 +/− 3.2 grams"}, {"measurement": "Average food consumption, Week 2", "setting": "[3]; 40 mg/kg in chow", "result": "33.8 +/− 2.9 grams"}, {"measurement": "Average food consumption, Week 3", "setting": "[3]; 40 mg/kg in chow", "result": "31.7 +/− 2.9 grams"}, {"measurement": "Average food consumption, Week 4", "setting": "[3]; 40 mg/kg in chow", "result": "33.6 +/− 4.4 grams"}, {"measurement": "Average food consumption, Week 1", "setting": "[3]; 80 mg/kg in chow", "result": "31.8 +/− 1.4 grams"}, {"measurement": "Average food consumption, Week 2", "setting": "[3]; 80 mg/kg in chow", "result": "32.9 +/− 1.9 grams"}, {"measurement": "Average food consumption, Week 3", "setting": "[3]; 80 mg/kg in chow", "result": "33.0 +/− 0.7 grams"}, {"measurement": "Average food consumption, Week 4", "setting": "[3]; 80 mg/kg in chow", "result": "34.0 +/− 2.9 grams"}, {"measurement": "Baseline Insulin (fasting)", "setting": "[4]; 40 mg/kg group", "result": "14.7 ± 2.7", "unit": "ng/mL"}, {"measurement": "Baseline Insulin (fasting)", "setting": "[4]; 80 mg/kg group", "result": "16.2 ± 11.2", "unit": "ng/mL"}, {"measurement": "Change in Insulin (fasting)", "setting": "[4]; 40 mg/kg", "result": "-0.2 ± 4.4", "unit": "ng/mL"}, {"measurement": "Change in Insulin (fasting)", "setting": "[4]; 80 mg/kg", "result": "-3.2 ± 11.2", "unit": "ng/mL"}, {"measurement": "Week 4 Insulin (fasting)", "setting": "[4]; 40 mg/kg in chow", "result": "14.5 ± 5.5", "unit": "ng/mL"}, {"measurement": "Week 4 Insulin (fasting)", "setting": "[4]; 80 mg/kg in chow", "result": "13.1 ± 8.2", "unit": "ng/mL"}, {"measurement": "Base line HbA1c", "setting": "[5]; 40 mg/kg group", "result": "3.8 ± 0.2", "unit": "%"}, {"measurement": "Base line HbA1c", "setting": "[5]; 80 mg/kg group", "result": "4.0 ± 0.4", "unit": "%"}, {"measurement": "Change in HbA1c", "setting": "[5]; 40 mg/kg", "result": "0.4 ± 0.2", "unit": "%"}, {"measurement": "Change in HbA1c", "setting": "[5]; 80 mg/kg", "result": "0.8 ± 0.7", "unit": "%"}, {"measurement": "Week 4 HbA1c", "setting": "[5]; 40 mg/kg in chow", "result": "4.3 ± 0.3", "unit": "%"}, {"measurement": "Week 4 HbA1c", "setting": "[5]; 80 mg/kg in chow", "result": "4.8 ± 0.4", "unit": "%"}]}
